Experimental findings from patent US7563862B2, “Neural regeneration peptides and methods for their use in treatment of brain damage” (Neuren Pharmaceuticals Limited, priority 2001, dated 2009) are described below.

Ends that are not written are not given here.

The subject of experiment [1] is un-injured cerebellar microexplants. As to the kind of experiment: proliferation induction without injury, cerebellar microexplants. Type of experiment: cell-based, rat. On the procedure:
FIG. 17 depicts results of proliferation induction without injury using NRP-2 segment KG (SEQ ID NO: 18) and rat NRP-1 (SEQ ID NO: 2). Peptides were administered 24hrs after start of cultivation to decrease interference in the assay due to initial neuronal survival or adherence effects. The cultures were fixed after 3 days in vitro. There was neuronal proliferation seen at 300 μM of NRP-2 segment KG (SEQ ID NO: 18).
Within the applied proliferation assay rat NRP-1 (SEQ ID NO:2) and NRP-2KS (SEQ ID NO:23) were tested for neuronal proliferation inducing activity (see FIG. 19). In order to discriminate proliferation from increased survival and cellular adhesion properties, NRP-2 KS (SEQ ID NO:23) was administered 24 hrs after the start of cultivation. Rat NRP-1(SEQ ID NO:2) had specific effects on neuronal proliferation, (see FIGS. 7, 9 and 10). Neuronal proliferation induced by NRP-2KS (SEQ ID NO:23) occurred within a range of about 0.3-30 nM using un-injured cerebellar microexplants (verified by counting cells displaying neurite outgrowth).

The subject of experiment [2] is neural stem cells. As to the kind of experiment: neural stem cell differentiation assay, neuronal differentiation and axonal outgrowth. The experiment is classed as cell-based, mouse. The procedure:
Neural stem cells were derived from E15 C3H mice forebrain and cultured as neurospheres in the presence of 20 ng/ml EGF and 10 ng/ml bFGF as described in Gritti et al. (2001). Briefly, timed pregnant mice were sacrificed and the embryos removed. Under sterile conditions the brains were removed and the forebrains dissected. The tissue was dissociated by trituration and pelleted by 75 g centrifugation for 10 minutes and the cells seeded in non-coated tissue culture flasks in NSA medium with growth factors. For passaging neurospheres were triturated and seeded as single cells.
Upon reaching a sufficient size, neurospheres were dissociated by trituration and plated at a density of 200,000 cells per well on laminin-coated 13 mm diameter coverslips that had been placed in Nunc 24 well plates. The plating medium was a 1:1 mixture of DMEM/F12 supplemented with N2 and Neurobasal supplemented with B27 and 2 mM glutamine. To enhance survival after plating the medium contained 2 ng/ml bFGF. After 24 h the medium was replaced with a neuronal differentiation-promoting medium (1:3 mixture of DMEM/F12 supplemented with N2 and Neurobasal supplemented with B27 and 2 mM glutamine) and except for the controls the test compound or IGF-1 was added simultaneously. The medium with fresh compound was exchanged every other day. Seven days after plating the differentiating cells were incubated for 20 minutes in differentiation medium containing 100 ng/ml Syto21 to label the nuclei of viable cells. Subsequently, they were fixed with 4% paraformaldehyde and immunostained with a mouse anti-βIII tubulin antibody and a goat anti-mouse Cy3-coupled secondary antibody.
After staining the coverslips were removed from the tissue culture plate and mounted on […], using Immunofluore fluorescent mounting medium. To analyse the percentage of neurons of total cells, with a Zeiss axiophot microscope, equipped with Axoivision software, at 20× magnification images of two random fields per well were taken in the red (tubulin stained neurons) and green (Syto21 stained nuclei) fluorescent channel. Neurons and nuclei per field were counted and the neuronal percentage of total cell number determined.

The test system of experiment [3] is cerebellar microexplants. As to the kind of experiment: cerebellar microexplant neuronal migration assay. Type of experiment: cell-based, rat. The text has this: Another assay of this invention includes embodiments comprising cerebellar microexplants. Laminated cerebellar cortices of the two hemispheres were explanted from a P-4 Long Evans rat, cut into small pieces in GBSS with 0.65% D(+)glucose solution, and triturated by a 0.4 mm gauge needle and subsequently pressed through a 125 μm pore size sieve. The obtained microexplants were centrifuged (200×g) 2 times for a medium exchange into serum-free BSA-supplemented START V-medium (Biochrom). Finally, the microexplants were reconstituted in 500 μl STARTV-medium. For culturing, 38 μl of the cell suspension and 2 μl of migration-inducing factor (NRP-1) in 0.01 M sodium phosphate (pH 7.3) or phosphate alone (control) was incubated for 3 hours on a poly-D-lysine-coated cover slip in a 35 mm Petri dish under an atmosphere comprising 5% CO2 in air and 100% humidity at 34° C. Subsequently, 1 ml of STARTV-medium was added, and the cultures were evaluated after 2-3 days of culture (for example, see FIG. 2).
For immunohistochemistry and neuronal migration experiments, cerebellar microexplants were fixed after 2-3 days in culture after the following regime: microexplants were fixed by 2-minute, serial treatment with 0.4%; 1.2%; 3% paraformaldehyde/0.25% glutaraldehyde, respectively, followed by a 5 min incubation in 4% paraformaldehyde/0.25% glutaraldehyde in 0.1 M sodium phosphate (pH 7.4). MAP-2 was detected using the biotin-streptavidin/Cy3 detection system as described under the immunohistochemistry section of the thalamocortical OTCs.
Microexplants having a diameter between 100-120 μm were chosen for statistical analysis. For quantitative analysis of neuronal migration, an optical device having 10 consecutive rings of 100 μm diameter was applied over the microexplants. All neurons that had migrated after 48 h of culture were counted. Neurons located between circles 1 to 10 (0.1-1 mm) around the margin of the respective microexplant (see FIG. 2) were counted, and each circle was expressed as a percentage of total migrating cells. The unpaired Student's t-test was used for significance analysis. Results were given as mean values±standard deviation.

For “KDPEARRAPGSLHPCLAAS-NH2 [NRP-2 segment KS, 19-mer fragment of NRP-2]”, in experiment [1] (300 μM), the “increased neuronal cell proliferation, greater than vehicle-treated controls” value worked out at 117.5%. Moreover, the “concentration range of induced neuronal proliferation” value in experiment [1] (peptide 24 hrs after start of cultivation) is 0.3 to 30 nM. For the same substance, the “maximum increase in beta-III-tubulin-positive neurons” value in experiment [2] (1 0nM, 7 days differentiation) is 2 fold. Also, in experiment [2] (together with BrdU for 24 hrs), the “proliferation rate during differentiation of NSC” value is on record as “an increase in the proliferation rate”.
For “NRP-1: rat 16 amino acid neural regeneration peptide purified from hippocampal OTC supernatant, Tyr Asp Pro Glu ... Cys His-NH2 (YDPEAASAPGSGNPCH-NH2)”, the “concentration sufficient to induce significantly enhanced migration of neurons” value in experiment [3] is 3 nM. Moreover, in experiment [3] (3 nM, 2 days of culture), the “migrating cerebellar cells distributed between 400-500 μm from microexplant margin” value was found to be 7.3±2.8% and the “migrating cerebellar cells distributed between 500-600 μm from microexplant margin” value is 13.2±13.9%. Besides, in experiment [3] (two days after administration), the “distance from the cerebellar margin where most of the cells were distributed” value is 200-300 μm and the “distance from the margin of a significant population of cells” value is recorded as 500-600 μm. Moreover, the “concentration of greatest effect on neuronal proliferation” value in experiment [1] came out at 3 nM. Besides, the “up regulation of neuronal cell proliferation” value in experiment [1] (3 nM) was 81.2%.
As for “SEPEARRAPGRKGGVVCASLAADW-NH2 [NRP-7 segment SW, 24-mer form of mouse NRP-7]”, in experiment [2] (10 pM, 7 days differentiation), the “maximum increase in beta-III-tubulin-positive neurons” value was found to be 2 fold. For the same substance, in experiment [2] (7 days differentiation), the “axonal outgrowth-promoting activity” value was “maximum activity for an increase in axonal length growth lies in the upper nanomolar range”.
